How the values were obtained:
[1] = test system: CD11a (LFA-1), CD62L (L-selectin), and CD49d (VLA-4); type: in vivo, human; conditions: monocytes from blood of treated COVID-19 patients; FIG. 3
Hel-92 (V617F mut) cells = assay: In vitro inhibition of cell migration towards SDF-1 (CXCL12) through a permeable membrane; conditions: FIG. 1A and 1B
MV-411 cells = assay: Fibronectin release: detachment of cells from fibronectin-coated plates; type: cell-based; conditions: MV-411 cells on fibronectin-coated plates; 1, 2, or 5 μm for two hours at 37° C.; CellTiter Glo; FIG. 2
Procedure: Fibronectin is an important component of the microenvironment extracellular matrix and attaches to cells through VLA-4 (integrin α4β1). Detachment of cells from fibronectin after exposure to Compound No. 128 was assessed by plating 1×10^6 MV-411 cells on fibronectin-coated plates (3 replicates). The cells were allowed to adhere overnight at 37° C. and then unadhered cells were washed away. Next, attached cells were treated with DMSO or Compound No. 128 (1, 2, or 5 μm) for two hours at 37° C. Detached cells were then collected and cell numbers determined using CellTiter Glo.

BTK [2] = biological target: T1, BTK (Homo sapiens, UniProt Q06187); assay: Inhibition of BTK phosphorylation (activation) in myeloid cell line Hel-92 basal; type: cell-based; design: endogenous in cells; host or cells: MOLM-13; conditions: incubated two hours with no stimulation
T1 sequence (Q06187 whole entry): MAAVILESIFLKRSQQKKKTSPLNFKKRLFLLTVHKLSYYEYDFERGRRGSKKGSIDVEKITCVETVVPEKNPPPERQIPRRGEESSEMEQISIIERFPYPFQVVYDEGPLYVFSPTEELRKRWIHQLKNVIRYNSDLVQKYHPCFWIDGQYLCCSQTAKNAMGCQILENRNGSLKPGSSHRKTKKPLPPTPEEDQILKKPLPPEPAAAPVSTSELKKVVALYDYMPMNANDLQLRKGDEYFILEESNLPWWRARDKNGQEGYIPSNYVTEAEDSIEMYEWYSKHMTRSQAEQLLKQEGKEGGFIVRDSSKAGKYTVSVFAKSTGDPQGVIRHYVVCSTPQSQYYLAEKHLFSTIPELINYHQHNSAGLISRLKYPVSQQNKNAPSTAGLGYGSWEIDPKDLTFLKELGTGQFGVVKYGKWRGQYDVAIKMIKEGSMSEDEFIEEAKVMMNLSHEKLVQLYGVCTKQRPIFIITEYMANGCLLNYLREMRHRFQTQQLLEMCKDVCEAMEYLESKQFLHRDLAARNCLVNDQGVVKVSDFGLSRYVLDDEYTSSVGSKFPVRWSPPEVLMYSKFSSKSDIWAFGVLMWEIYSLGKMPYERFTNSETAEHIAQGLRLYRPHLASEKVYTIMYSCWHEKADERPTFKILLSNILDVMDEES
Procedure: (§1) Inhibition of BTK phosphorylation (activation) by Compound No. 128 (1-(4-(((6-amino-5-(4-phenoxyphenyl)pyrimidin-4-yl)amino)methyl)-4-fluoropiperidin-1-yl)prop-2-en-1-one) was assessed in healthy B-cells and in myeloid cell lines MOLM-13 basal and Hel-92 basal. Compound No. 128 was incubated with the myeloid cells lines for two hours with no stimulation and with healthy PBMC5 for two hours with 10 minutes of αIgM and H2O2 stimulation.

stimulated whole blood = assay: In vitro cytokine production in stimulated whole blood; type: cell-based; conditions: 24 hour incubation, FIG. 4
Procedure: The impact on in vitro cytokine production after exposure to Compound No. 128 was assessed in stimulated whole blood following a 24 hour incubation.

BTK [3] = biological target: T1, BTK; assay: Inhibition of BTK phosphorylation (activation) in myeloid cell line MOLM-13 basal; type: cell-based; design: endogenous in cells; host or cells: MOLM-13; conditions: incubated two hours with no stimulation
Procedure: as §1

BTK [4] = biological target: T1, BTK; assay: Inhibition of BTK phosphorylation (activation) in healthy B-cells; type: cell-based; design: endogenous in cells; conditions: healthy PBMC incubated two hours with 10 minutes of αIgM and H2O2 stimulation
Procedure: as §1

SMILES: C=CC(=O)N1CCC(F)(CNc2ncnc(N)c2-c2ccc(Oc3ccccc3)cc2)CC1 [Compound No. 128, 1-(4-(((6-amino-5-(4-phenoxyphenyl)pyrimidin-4-yl)amino)methyl)-4-fluoropiperidin-1-yl)prop-2-en-1-one]
- levels of surface molecules CD11a (LFA-1), CD62L (L-selectin), CD49d (VLA-4) [1]: reduced levels of surface molecules in some patients
- inhibition of cell migration towards SDF-1 (Hel-92 (V617F mut) cells): inhibit cell migration towards SDF-1
- detachment of cells from fibronectin (MV-411 cells): cells detached from fibronectin
- EC50 (BTK [2]): 19.7 nM
- cytokine and chemokine production (stimulated whole blood): decreased cytokine and chemokine production upon cellular stimulation
- EC50 (BTK [3]): 21.4 nM
- EC50 (BTK [4]): 16.9 nM
